From PubChem BioAssay (NCI)
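Interpolation was linear, between the two tested concentrations surrounding the appropriate level; five concentrations were tested over 48 hours in 96-well plates. TGI: total growth inhibition.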

Key:
Experiment in all cases: NCI anticancer screen, dose series, 48 h
[1] = system: HCT-15 colon
[2] = system: OVCAR-4 ovarian
[3] = system: SNB-75 CNS
[4] = system: OVCAR-8 ovarian
[5] = system: HOP-62 NSCLC
[6] = system: SF-268 CNS
[7] = system: CCRF-CEM leukemia
[8] = system: MOLT-4 leukemia
[9] = system: HCC-2998 colon
[10] = system: SK-MEL-5 melanoma
[11] = system: ACHN renal
[12] = system: UO-31 renal
[13] = system: SK-MEL-28 melanoma
[14] = system: COLO 205 colon
[15] = system: U251 CNS
[16] = system: A498 renal
[17] = system: RPMI-8226 leukemia
[18] = system: M14 melanoma
[19] = system: EKVX NSCLC
[20] = system: DLD-1 colon
[21] = system: SN12C renal
[22] = system: KM12 colon
[23] = system: SW-620 colon
[24] = system: NCI-H23 lung
[25] = system: KM20L2 colon
[26] = system: K-562 leukemia
[27] = system: SNB-19 CNS
[28] = system: LXFL 529 NSCLC
[29] = system: SF-295 CNS
[30] = system: OVCAR-3 ovarian
[31] = system: XF 498 CNS
[32] = system: IGROV1 ovarian
[33] = system: A549 NSCLC
[34] = system: TK-10 renal
[35] = system: CAKI-1 renal
[36] = system: OVCAR-5 ovarian
[37] = system: M19-MEL melanoma
[38] = system: NCI-H460 lung
[39] = system: SK-OV-3 ovarian
[40] = system: NCI-H522 lung
[41] = system: UACC-257 melanoma
[42] = system: HT29 colon
[43] = system: SNB-78 CNS
[44] = system: UACC-62 melanoma
[45] = system: DMS 114 small cell lung
[46] = system: HCT-116 colon
[47] = system: HL-60(TB) leukemia
[48] = system: DMS 273 small cell lung
[49] = system: MALME-3M melanoma
[50] = system: NCI-H226 lung
[51] = system: 786-0 renal
[52] = system: RXF 393 renal
[53] = system: SK-MEL-2 melanoma
[54] = system: SF-539 CNS
[55] = system: LOX IMVI melanoma

Structure (SMILES): COc1ccc(/C=C/C(=O)C(C)(C)C)cc1OC
- TGI [1]: > 100 µM
- TGI [2]: > 100 µM
- TGI [3]: > 100 µM
- TGI [4]: > 100 µM
- TGI [5]: > 100 µM
- TGI [6]: > 100 µM
- TGI [7]: > 100 µM
- TGI [8]: > 100 µM
- TGI [9]: > 100 µM
- TGI [10]: > 100 µM
- TGI [11]: > 100 µM
- TGI [12]: > 100 µM
- TGI [13]: > 100 µM
- TGI [14]: > 100 µM
- TGI [15]: > 100 µM
- TGI [16]: > 100 µM
- TGI [17]: > 100 µM
- TGI [18]: > 100 µM
- TGI [19]: > 100 µM
- TGI [20]: > 100 µM
- TGI [21]: > 100 µM
- TGI [22]: > 100 µM
- TGI [23]: > 100 µM
- TGI [24]: > 100 µM
- TGI [25]: > 100 µM
- TGI [26]: > 100 µM
- TGI [27]: > 100 µM
- TGI [28]: > 100 µM
- TGI [29]: > 100 µM
- TGI [30]: > 100 µM
- TGI [31]: > 100 µM
- TGI [32]: > 100 µM
- TGI [33]: > 100 µM
- TGI [34]: > 100 µM
- TGI [35]: > 100 µM
- TGI [36]: > 100 µM
- TGI [37]: > 100 µM
- TGI [38]: > 100 µM
- TGI [39]: > 100 µM
- TGI [40]: > 100 µM
- TGI [41]: > 100 µM
- TGI [42]: > 100 µM
- TGI [43]: > 100 µM
- TGI [44]: > 100 µM
- TGI [45]: > 100 µM

Structure (SMILES): CCOP(=S)(OCC)Oc1ccc2c(c1)OC(=O)C1(Cl)C2(C)C2(Cl)C(=O)Oc3cc(OP(=S)(OCC)OCC)ccc3C12C (stereo not drawn)
- TGI [1]: 41.6 µM
- TGI [2]: 24.4 µM
- TGI [3]: 34.3 µM
- TGI [4]: 37.2 µM
- TGI [5]: 40.3 µM
- TGI [6]: 21 µM
- TGI [7]: 41.1 µM
- TGI [8]: 66.6 µM
- TGI [9]: 33.9 µM
- TGI [46]: 25 µM
- TGI [10]: 31.7 µM
- TGI [11]: 43.4 µM
- TGI [47]: 34.4 µM
- TGI [12]: 33.7 µM
- TGI [13]: 31.1 µM
- TGI [14]: 34.3 µM
- TGI [15]: 20 µM
- TGI [16]: 63.7 µM
- TGI [48]: 38.1 µM
- TGI [17]: 52.8 µM
- TGI [18]: 33.7 µM
- TGI [19]: 55.5 µM
- TGI [49]: 43.8 µM
- TGI [20]: 33.3 µM
- TGI [21]: 39.3 µM
- TGI [22]: 30.7 µM
- TGI [23]: 33.3 µM
- TGI [25]: 33.4 µM
- TGI [26]: 77.3 µM
- TGI [27]: 15.6 µM
- TGI [28]: 21.1 µM
- TGI [50]: 31.1 µM
- TGI [29]: 29.7 µM
- TGI [30]: 28.1 µM
- TGI [31]: 36.2 µM
- TGI [32]: 38.7 µM
- TGI [33]: 74.1 µM
- TGI [51]: 44.9 µM
- TGI [34]: 61.8 µM
- TGI [52]: 25.8 µM
- TGI [53]: 42.3 µM
- TGI [35]: 41.8 µM
- TGI [36]: 33.3 µM
- TGI [54]: 24.7 µM
- TGI [37]: 33.9 µM
- TGI [38]: 36.6 µM
- TGI [40]: 22.3 µM
- TGI [41]: 37.2 µM
- TGI [42]: 29.9 µM
- TGI [43]: 49.4 µM
- TGI [44]: 26.6 µM
- TGI [55]: 37.5 µM
- TGI [45]: 30 µM
